Literature values as cited in article PMC11949389 (Polish Journal of Microbiology, 2025).
In brackets after ≈: the same amount, converted by molar mass. Where two headings read alike, the source gives them in different places.

Columns and labels:
[1] = system: Candida tropicalis; conditions: Candida tropicalis; ref Iraji et al. 2020; Stringaro et al. 2022
[2] = system: Candida albicans; conditions: Candida albicans; ref Sharifzadeh et al. 2019; Iraji et al. 2020; Shaban et al. 2020; Stringaro et al. 2022; Biernasiuk et al. 2022
[3] = system: Candida krusei; conditions: Candida krusei; ref Sharifzadeh et al. 2019; Iraji et al. 2020; Biernasiuk et al. 2022; Stringaro et al. 2022
[4] = system: Candida parapsilosis; conditions: ref Iraji et al. 2020, Biernasiuk et al. 2022
[5] = system: Candida glabrata; conditions: Candida glabrata; ref Sharifzadeh et al. 2019; Iraji et al. 2020; Biernasiuk et al. 2022; Stringaro et al. 2022
[6] = system: Candida dubliniensis; conditions: ref Iraji et al. 2020
[7] = system: Escherichia coli; conditions: Escherichia coli; ref Owen et al. 2019; Sayout et al. 2020; Noumi et al. 2023
[8] = system: Acinetobacter baumannii; conditions: ref Sayout et al. 2020
[9] = system: Klebsiella pneumoniae; conditions: ref Sayout et al. 2020, de Souza et al. 2021, Kwiatkowski et al. 2022
[10] = system: Enterobacter aerogenes; conditions: ref Sayout et al. 2020
[11] = system: Mupirocin-susceptible Staphylococcus aureus; conditions: ref Kwiatkowski et al. 2019
[12] = system: Staphylococcus aureus; conditions: for MIC / tetracycline MIC: S. aureus; for MIC: ref Kwiatkowski et al. (2020); for MIC/Sensitivity: Staphylococcus aureus, ref Kwiatkowski et al. 2020, Sayout et al. 2020, Sousa Silveira et al. 2020, Macêdo et al. 2022, Noumi et al. 2023, Sharma et al. 2023; for tetracycline MIC: ref Sousa Silveira et al. (2020)
[13] = system: Enterobacter cloacae; conditions: ref Sayout et al. 2020
[14] = system: Methicillin-resistant Staphylococcus aureus; conditions: MRSA isolates, ref Kwiatkowski et al. (2020)
[15] = system: Vibrio anguillarum, and Vibrio harveyi; conditions: ref Rossi et al. (2021)
[16] = system: Mupirocin-resistant Staphylococcus aureus; conditions: ref Kwiatkowski et al. 2019
[17] = system: Salmonella spp.; conditions: ref Sayout et al. 2020
[18] = system: Klebsiella oxytoca; conditions: ref Sayout et al. 2020
[19] = system: Pseudomonas aeruginosa; conditions: Pseudomonas aeruginosa; ref Owen et al. 2019; Sim et al. 2019; Noumi et al. 2023
[20] = system: Candida albicans; conditions: ref Shaban et al. 2020
[21] = system: Candida auris; conditions: Candida auris; ref Shaban et al. 2020
[22] = system: Candida auris; conditions: ref Shaban et al. 2020
[23] = system: Staphylococcus aureus; conditions: ref Mastoor et al. 2022
[24] = system: Campylobacter jejuni
[25] = in combination with penicillin G

Compound	MIC/Sensitivity [1]	MIC/Sensitivity [2]	MIC/Sensitivity [3]	MIC/Sensitivity [4]	MIC/Sensitivity [5]	MIC/Sensitivity [6]	MIC/Sensitivity [7]	MIC/Sensitivity [8]	MIC/Sensitivity [9]	MIC/Sensitivity [12]	MIC/Sensitivity [13]	other results
CC1CC[C@H](C(C)C)[C@@H](O)C1 (single isomer, unassigned; (+)) [(+)-Menthol]	100.0064 to 445.341 mg/mL	221.8892 to 7125.456 mg/mL	100.0064 to 445.341 mg/mL	53.1284 to 890.682 mg/mL	26.5642 to 445.341 mg/mL	53.1284 to 3562.728 mg/mL						
CC(C)=CCCC(C)CCO (single isomer, unassigned; (-)) [(–)-Citronellol]	24.68 to 100.2625 mg/mL	49.36 to 1665.9 mg/mL	100.2625 to 1665.9 mg/mL	49.36 to 416.475 mg/mL	49.36 to 208.2375 mg/mL	24.68 to 208.2375 mg/mL						
CC12CCC(CC1)C(C)(C)O2 [1,8-Cineole]							0.00281 mg/mL (≈ 0.0182 mM)	0.00563 mg/mL (≈ 0.0365 mM)	0.01125 mg/mL (≈ 0.0729 mM)	0.00563 to 115.1 mg/mL	0.00563 mg/mL (≈ 0.0365 mM)	MIC/Sensitivity [10]: 0.00281 mg/mL (≈ 0.0182 mM); MIC/Sensitivity [11]: 307 mg/mL (≈ 1990 mM); MIC [12]: 28,800– 57,600 μg/ml; FICI [14, 25]: 0.1; activity at the tested concentrations [15]: no activity; MIC/Sensitivity [16]: 57.56 mg/mL (≈ 373 mM); MIC/Sensitivity [17]: 0.0075 mg/mL (≈ 0.0486 mM); MIC/Sensitivity [18]: 0.00563 mg/mL (≈ 0.0365 mM)
CC(C)=CCC[C@@H](C)CCO [(+)-Citronellol]	24.68 to 100.2625 mg/mL	49.36 to 1665.9 mg/mL	100.2625 to 832.95 mg/mL	49.36 to 416.475 mg/mL	49.36 to 208.2375 mg/mL	24.68 to 208.2375 mg/mL						
CC(C)[C@@H]1CC[C@@H](C)CC1=O [(–)-Menthone]	1789.3 to 14314.4 mg/mL	1789.3 to 28628.8 mg/mL	3578.6 to 7157.2 mg/mL	894.65 to 14314.4 mg/mL	1789.3 to 14314.4 mg/mL	894.65 to 14314.4 mg/mL						MIC/Sensitivity [11]: 27.91 mg/mL (≈ 181 mM); MIC/Sensitivity [16]: 6.98 mg/mL (≈ 45.3 mM)
CC1=CCC2CC1C2(C)C (stereo not drawn) [(–)-α-Pinene]	6865.992 to 27463.968 mg/mL	858.249 to 54927.936 mg/mL	858.249 to 1716.498 mg/mL	429.1245 to 1716.498 mg/mL	858.249 to 54927.936 mg/mL	858.249 to 27463.968 mg/mL						
C=C1C2CCC(C2)C1(C)C (stereo not shown) [Camphene]							0.015 mg/mL (≈ 0.11 mM)	0.02 mg/mL (≈ 0.147 mM)	0.03 mg/mL (≈ 0.22 mM)			
CC12CCC(CC1=O)C2(C)C (stereo not shown) [Camphor]	246.6126 to 989.495 mg/mL	494.7475 to 3957.98 mg/mL	246.6126 to 3957.98 mg/mL	59.3697 to 1978.99 mg/mL	59.3697 to 989.495 mg/mL	246.6126 to 1978.99 mg/mL	0.00763 mg/mL (≈ 0.0501 mM)	0.01017 mg/mL (≈ 0.0668 mM)	0.00508 mg/mL (≈ 0.0334 mM)	0.00763 mg/mL (≈ 0.0501 mM)	0.0061 mg/mL (≈ 0.0401 mM)	MIC/Sensitivity [19]: 0.0061 mg/mL (≈ 0.0401 mM); MIC/Sensitivity [10]: 0.01525 mg/mL (≈ 0.1 mM); MIC/Sensitivity [17]: 0.0061 mg/mL (≈ 0.0401 mM); MIC/Sensitivity [18]: 0.01017 mg/mL (≈ 0.0668 mM)
C=C(C)C1CC=C(C)C(=O)C1 (stereo not shown) [Carvone]							0.01138 mg/mL (≈ 0.0758 mM)	0.00758 mg/mL (≈ 0.0505 mM)	0.01517 mg/mL (≈ 0.101 mM)	0.01138 mg/mL (≈ 0.0758 mM)	0.0091 mg/mL (≈ 0.0606 mM)	MIC/Sensitivity [19]: 0.0091 mg/mL (≈ 0.0606 mM); MIC/Sensitivity [10]: 0.00569 mg/mL (≈ 0.0379 mM); MIC/Sensitivity [17]: 0.02275 mg/mL (≈ 0.151 mM); MIC/Sensitivity [18]: 0.01138 mg/mL (≈ 0.0758 mM)
C=CC(C)(CCC=C(C)C)OC(C)=O (stereo not shown) [Linalyl acetate]										46.9 mg/mL		MIC/Sensitivity [11]: 450.5 mg/mL; MIC [12]: 28,200–112,600 μg/ml; FICI ([14]; in combination with methicillin): 0.4; FICI [14, 25]: 0.6
CC(C)[C@@H]1CC[C@@H](C)CC1=O [Menthone]										27.9 mg/mL (≈ 181 mM)		
C=CCc1ccc(OC)c(OC)c1 [Methyl eugenol]		1.25 mg/mL (≈ 7.01 mM)										Mechanisms of action [20]: • Reduced proteinase production; MIC/Sensitivity [21]: 1.25 mg/mL (≈ 7.01 mM); Mechanisms of action [22]: • Reduced proteinase production and host cell adherence
C=CC(=C)CCC=C(C)C [Myrcene]							0.00194 mg/mL (≈ 0.0142 mM)		0.0155 mg/mL (≈ 0.114 mM)		0.00775 mg/mL (≈ 0.0569 mM)	
CC(C)[C@]12CC(=O)[C@H](C)[C@H]1C2 [Thujone]	919.4692 to 7355.7536 mg/mL	459.7346 to 7355.7536 mg/mL	919.4692 to 7355.7536 mg/mL	3677.8768 to 14711.5072 mg/mL	1838.9384 to 14711.5072 mg/mL	919.4692 to 7355.7536 mg/mL						
CC1CCC(C(C)C)C(O)C1 (stereo not shown) [menthol]												activity at the tested concentrations [15]: no activity
CN(C)[C@@H]1C(O)=C(C(N)=O)C(=O)[C@@]2(O)C(O)=C3C(=O)c4c(O)cccc4[C@@](C)(O)[C@H]3C[C@@H]12 [tetracycline, reference compound]												tetracycline MIC ([12]; before combination): 0.114 mg/mL; tetracycline MIC ([12]; combined with thymol): 0.101 mg/mL
O=CC(Br)=Cc1ccccc1 [α-Bromo-trans-cinnamaldehyde]												Mechanisms of action [23]: • Gene expression reduction linked to intracellular adhesion
CC1=CCC2CC1C2(C)C (stereo not drawn) [α-Pinene]							0.01188 mg/mL (≈ 0.0872 mM)	0.01188 mg/mL (≈ 0.0872 mM)	0.02375 mg/mL (≈ 0.174 mM)	0.01188 mg/mL (≈ 0.0872 mM)	0.01188 mg/mL (≈ 0.0872 mM)	activity at the tested concentrations [15]: no activity
C=C1CCC2CC1C2(C)C (stereo not drawn) [β-Pinene]	103.5348 to 3432.996 mg/mL	213.8811 to 13731.984 mg/mL	103.5348 to 429.1245 mg/mL	213.8811 to 431.8491 mg/mL	103.5348 to 1716.498 mg/mL	103.5348 to 6865.992 mg/mL	0.00506 mg/mL (≈ 0.0371 mM)	0.0135 mg/mL (≈ 0.0991 mM)	0.01013 mg/mL (≈ 0.0744 mM)	0.01013 mg/mL (≈ 0.0744 mM)	0.00506 mg/mL (≈ 0.0371 mM)	MIC/Sensitivity [19]: 0.01013 mg/mL (≈ 0.0744 mM); MIC/Sensitivity [10]: 0.02025 mg/mL (≈ 0.149 mM); MIC/Sensitivity [17]: 0.0081 mg/mL (≈ 0.0595 mM); MIC/Sensitivity [18]: 0.0135 mg/mL (≈ 0.0991 mM)
CC1=CCC(C(C)C)=CC1 [γ-Terpinene]								0.00488 mg/mL (≈ 0.0358 mM)	0.00488 mg/mL (≈ 0.0358 mM)		0.0065 mg/mL (≈ 0.0477 mM)	MIC/Sensitivity ([24]; Campylobacter jejuni, ref Šimunović et al. 2020): 1 mg/mL (≈ 7.34 mM); MIC ([24]; ref Šimunović et al. (2020)): 1,000 μg/ml; MIC/Sensitivity [10]: 0.00488 mg/mL (≈ 0.0358 mM); MIC/Sensitivity [17]: 0.0065 mg/mL (≈ 0.0477 mM); MIC/Sensitivity [18]: 0.00488 mg/mL (≈ 0.0358 mM)
(+)-α-Pinene	429.1245 to 1716.498 mg/mL	51.7674 to 1716.498 mg/mL	51.7674 to 858.249 mg/mL	51.7674 to 429.1245 mg/mL	51.7674 to 1716.498 mg/mL	103.5348 to 1716.498 mg/mL						
(–)-Limonene	213.8811 to 1716.498 mg/mL	8.1738 to 13731.984 mg/mL	8.1738 to 429.1245 mg/mL	50.4051 to 213.8811 mg/mL	50.4051 to 3432.996 mg/mL	12.2607 to 1716.498 mg/mL						
